Source: US6498182B2, “Compounds” (Biovitrum AB, priority 2000, dated 2002)

Biological target: T1, Human PTP1B (Homo sapiens, UniProt P18031)
T1 construct: Human PTP1B (amino acid residues 1-298, cloned from a human placental library); made in house; host or cells: E. coli BL21(DE3)
T1 sequence (P18031 1-298): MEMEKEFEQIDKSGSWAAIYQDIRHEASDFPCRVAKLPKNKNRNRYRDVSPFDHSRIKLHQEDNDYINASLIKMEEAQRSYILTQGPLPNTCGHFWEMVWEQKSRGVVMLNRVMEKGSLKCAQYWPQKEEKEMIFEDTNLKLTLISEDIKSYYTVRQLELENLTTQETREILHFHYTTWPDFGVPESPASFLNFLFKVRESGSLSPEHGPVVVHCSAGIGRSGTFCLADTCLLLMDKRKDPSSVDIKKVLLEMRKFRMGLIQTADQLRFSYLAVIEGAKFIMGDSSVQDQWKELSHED
Assay: PTP1B activity, pNPP substrate, 96-well plate
Assay type: biochemical
Details: 2 mM, control wells
Description: Human PTP1B (amino acid residues 1-298, cloned from a human placental library), without the GST tag and thrombin cleavage site, was inserted into a pMB replicon and transformed into E. coli BL21(DE3), a strain containing a chromosomal copy of the gene for T7 RNA polymerase under control of a lacUV5 promoter. Expression of PTP1B was induced with isopropyl thiogalactose and cells were lysed in lysis buffer comprising 50 mM Tris-HCl pH 7.5, 10% glycerol, 1 mM EDTA, 3 mM DTT, 3 mM MgCl2, and 0.2 mg/ml lysozyme with 1 mg/ml DNAse I. The soluble protein was purified by ion exchange, hydrophobic interaction and gel exclusion chromatography for use in assays to identify PTP1B inhibitors. The plasmid pGEX2K-SHP2 which encoded the catalytic domain of human SHP-2 (residues 252-529) was used to transform E. coli cells. […]
Human PTP1B activity was measured using p-nitrophenol phosphate (pNPP) as substrate in a 96-well microtiter plate format. An assay pH of 7.2 is used for standard assays (measured extinction coefficient=9800 at pH 7.2).
Standard assays were conducted at room temperature in a total volume of 0.2 ml that contains Hepes buffer (50 mM, pH 7.2), NaCl (50 mM), EDTA (1 mM), DTT (1 mM), bovine serum albumin (1 mg/ml), pNPP (1.25 mM) and PTP1B (500 ng/ml, 13.5 nM). […] The OD^405 was subsequently measured. […]

[Na+].[Na+].[Na+].[O]=[V]([O-])([O-])[O-] [sodium orthovanadate]
inhibition of PTP1B-catalyzed hydrolysis of pNPP: completely
